Source: PubChem BioAssay AID248 (DTP/NCI, 2004)
Toxic doses and inconclusive results are not listed. No stated cut-off is given here; in the data, active means T/C of 150% or more; inactive means T/C below 125%. Peptide text beside a SMILES is read from it. * marks the point of attachment. For = O=C*

Test system: L1210 leukemia ip in BDF1 mice, survival T/C
Experiment: NCI In Vivo Anticancer Drug Screen. Data for tumor model L1210 Leukemia (intraperitoneal) in B6D2F1 (BDF1) mice
Conditions: endpoint: mean survival time, higher = longer survival
Summary of the method: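 Read-out is survival time, reported as the treated-group measurement over the vehicle-control measurement.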

[1] = dose: 100.0 mg/kg/injection, schedule: Q04DX003 (ip), vehicle: saline with Tween-80
[2] = dose: 200.0 mg/kg/injection, schedule: Q04DX003 (ip), vehicle: saline with Tween-80
[3] = dose: 400.0 mg/kg/injection, schedule: Q04DX003 (ip), vehicle: saline with Tween-80
[4] = dose: 100.0 mg/kg/injection, schedule: Q01DX009 (ip), vehicle: Klucel (hydroxypropylcellulose) (HPC)
[5] = dose: 200.0 mg/kg/injection, schedule: Q01DX009 (ip), vehicle: Klucel (hydroxypropylcellulose) (HPC)
[6] = dose: 400.0 mg/kg/injection, schedule: Q01DX009 (ip), vehicle: Klucel (hydroxypropylcellulose) (HPC)
[7] = dose: 100.0 mg/kg/injection, schedule: Q01DX009 (ip), vehicle: saline with Tween-80
[8] = dose: 200.0 mg/kg/injection, schedule: Q01DX009 (ip), vehicle: saline with Tween-80
[9] = dose: 400.0 mg/kg/injection, schedule: Q01DX009 (ip), vehicle: saline with Tween-80
[10] = dose: 100.0 mg/kg/injection, schedule: Q04DX003 (ip), vehicle: Klucel (hydroxypropylcellulose) (HPC)

Measured: T/C

Cc1ccc(S(=O)(=O)OCCCl)cc1
inactive: dose: 100.0 mg/kg/injection, schedule: Q04DX002 (ip), vehicle: saline with Tween-80 98 % of control | dose: 200.0 mg/kg/injection, schedule: Q04DX002 (ip), vehicle: saline with Tween-80 109 % of control

COc1ccc(C(Br)C(Br)C(=O)c2ccc3c(c2)OCO3)cc1OC (stereo not drawn)
inactive: dose: 100.0 mg/kg/injection, schedule: Q04DX003 (ip), vehicle: saline 92 % of control | dose: 200.0 mg/kg/injection, schedule: Q04DX003 (ip), vehicle: saline 89 % of control | dose: 400.0 mg/kg/injection, schedule: Q04DX003 (ip), vehicle: saline 98 % of control

O=C1N/C(=N\OCc2ccccc2)CC(NOCc2ccccc2)N1 (stereo not drawn)
inactive: [1] 101 % of control | [2] 97 % of control | [3] 97 % of control

C/C=C/C(=O)Nc1ccccc1
inactive: dose: 50.0 mg/kg/injection, schedule: Q01DX001 (ip), vehicle: carboxymethylcellulose (CMC) 97 % of control | dose: 100.0 mg/kg/injection, schedule: Q01DX001 (ip), vehicle: carboxymethylcellulose (CMC) 100 % of control | dose: 200.0 mg/kg/injection, schedule: Q01DX001 (ip), vehicle: carboxymethylcellulose (CMC) 113 % of control

N#Cc1cccc(OCCCCOc2ccccc2)c1
inactive: [4] 89 % of control | [5] 109 % of control | [6] 95 % of control

COC(=O)C(CC(C)C)NC(=O)C(Cc1ccc(O)cc1)NC=O (stereo not drawn) (For-Tyr-Leu-OMe; configuration not given here)
inactive: [7] 94 % of control | [1] 110 % of control | [8] 95 % of control | [2] 102 % of control | [9] 92 % of control | [3] 96 % of control

Oc1ccc(CNc2nn[nH]n2)cc1
inactive: [1] 94 % of control | [2] 96 % of control | [3] 96 % of control

CC(C)CC(CC(C)C)NCC(C)OC(=O)C(c1ccccc1)c1ccccc1 (stereo not drawn)
inactive: dose: 75.0 mg/kg/injection, schedule: Q01DX001 (ip), vehicle: saline 102 % of control | dose: 150.0 mg/kg/injection, schedule: Q01DX001 (ip), vehicle: saline 98 % of control | dose: 300.0 mg/kg/injection, schedule: Q01DX001 (ip), vehicle: saline 102 % of control

Fc1cc(N(CCCl)CCCl)ccc1C=Nc1ccc(-n2ccnc2)cc1
inactive: dose: 62.5 mg/kg/injection, schedule: Q04DX002 (ip), vehicle: Klucel (hydroxypropylcellulose) (HPC) 102 % of control | dose: 125.0 mg/kg/injection, schedule: Q04DX002 (ip), vehicle: Klucel (hydroxypropylcellulose) (HPC) 106 % of control | dose: 250.0 mg/kg/injection, schedule: Q04DX002 (ip), vehicle: Klucel (hydroxypropylcellulose) (HPC) 106 % of control

O=C(C#Cc1ccccc1)OCC#Cc1ccccc1
inactive: dose: 100.0 mg/kg/injection, schedule: Q01DX001 (ip), vehicle: saline 102 % of control | dose: 200.0 mg/kg/injection, schedule: Q01DX001 (ip), vehicle: saline 96 % of control | dose: 400.0 mg/kg/injection, schedule: Q01DX001 (ip), vehicle: saline 94 % of control

NC(=S)Nc1ccc(Cc2ccc(NC(N)=S)cc2)cc1
inactive: [4] 98 % of control | [5] 91 % of control | [6] 88 % of control

CC1CCC(C(C)C)C(NCc2ccccc2O)C1 (stereo not drawn)
inactive: [10] 89 % of control

C=CCc1cnc(SC)[nH]c1=O
inactive: [10] 102 % of control | dose: 200.0 mg/kg/injection, schedule: Q04DX003 (ip), vehicle: Klucel (hydroxypropylcellulose) (HPC) 97 % of control | dose: 400.0 mg/kg/injection, schedule: Q04DX003 (ip), vehicle: Klucel (hydroxypropylcellulose) (HPC) 93 % of control

COC(=O)C(C)=O
inactive: [7] 103 % of control | [8] 101 % of control | [9] 98 % of control

CC(C(CC(=O)c1ccccc1)c1ccccc1)[N+](=O)[O-] (stereo not drawn)
inactive: dose: 100.0 mg/kg/injection, schedule: Q01DX001 (ip), vehicle: Klucel (hydroxypropylcellulose) (HPC) 124 % of control | [1] 98 % of control | dose: 200.0 mg/kg/injection, schedule: Q01DX001 (ip), vehicle: Klucel (hydroxypropylcellulose) (HPC) 97 % of control | [2] 97 % of control | dose: 400.0 mg/kg/injection, schedule: Q01DX001 (ip), vehicle: Klucel (hydroxypropylcellulose) (HPC) 96 % of control | [3] 92 % of control
